Measured values as given in patent publication US12421207B2 (CMG Pharmaceutical Co., Ltd., priority 2022, dated 2025).

What was measured:
HCC827/ER cells = experiment: Cell viability assay (CellTiter-Glo 2.0), erlotinib-resistant HCC827/ER cells; type: cell-based, human; settings: Homo sapiens, HCC827ER, Table 4, 72 h drug treatment, combinations of EGFR TKIs and inhibitor of Formula (I), read-out: Relative cell viability
From the text: (§1) To explore c-MET and AXL mechanisms of EGFR TKI resistance, resistant cells of the EGFR TKI hypersensitive EGFR exon 19 mutant NSCLC cell line, HCC827 and PC9 were generated by exposing these cells to increasing concentrations of EGFR TKI for over 3 months.
(§2) Gefitinib-resistant cells were referred to as HCC827/GR. […] Osimertinib-resistant cells were referred to as HCC827/OR.

PC9/ER cells = experiment: Cell viability assay (CellTiter-Glo 2.0), erlotinib-resistant PC9/ER cells; type: cell-based; settings: Homo sapiens, PC-9/ER; Table 4; 72 h drug treatment, combinations of EGFR TKIs and inhibitor of Formula (I); read-out: Relative cell viability; IC50 PC9ER
From the text: as §1, §2

HCC827/OR cells = experiment: Cell viability assay (CellTiter-Glo 2.0), osimertinib-resistant HCC827/OR cells; type: cell-based, human; settings: Homo sapiens, HCC827; Table 4; 72 h drug treatment, combinations of EGFR TKIs and inhibitor of Formula (I); read-out: Relative cell viability; IC50 HCC827OR
From the text: as §1, §2

HCC827/GR cells = experiment: Cell viability assay (CellTiter-Glo 2.0), gefitinib-resistant HCC827/GR cells; type: cell-based, human; settings: Homo sapiens, HCC827; Table 4; 72 h drug treatment, combinations of EGFR TKIs and inhibitor of Formula (I); read-out: Relative cell viability; IC50 HCC827GR
Procedure, shortened: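 Gefitinib-resistant HCC827 cells, derived by over 3 months' escalating EGFR TKI exposure, seeded at 1,000 cells/well. Treated 72 h with a 10-point dose range from 1 nM to 10,000 nM. Viability read by CellTiter-Glo 2.0 luminescence.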

Row | SMILES | IC50 (HCC827/ER cells) | IC50 (PC9/ER cells) | IC50 (HCC827/OR cells) | IC50 (HCC827/GR cells)
1 | CN1CCN(C(C)(C)C#Cc2c(Oc3ccc(NC(=O)c4cn(C5CCOCC5)c(=O)n(-c5ccc(F)cc5)c4=O)cc3F)ccnc2N)CC1 [Example 57, N-(4-(2-amino-3-(3-methyl-3-(4-methylpiperazin-1-yl)but-1-ynyl)pyridin-4-yloxy)-3-fluorophenyl)-3-(4-fluorophenyl)-2,4-dioxo-1-(tetrahydro-2H-pyran-4-yl)-1,2,3,4-tetrahydropyrimidine-5-carboxamide] | < 100 nM | < 1000 nM | < 1000 nM | < 100 nM
2 | CC(C)(C#Cc1c(Oc2ccc(NC(=O)c3cn(C4CCOCC4)c(=O)n(-c4ccc(F)cc4)c3=O)cc2F)ccnc1N)N1CCNCC1 [Example 58, N-(4-(2-amino-3-(3-methyl-3-(piperazin-1-yl)but-1-ynyl)pyridin-4-yloxy)-3-fluorophenyl)-3-(4-fluorophenyl)-2,4-dioxo-1-(tetrahydro-2H-pyran-4-yl)-1,2,3,4-tetrahydropyrimidine-5-carboxamide] | < 1000 nM | < 1000 nM | < 1000 nM | < 1000 nM
3 | Nc1nccc(Oc2ccc(NC(=O)c3cn(C4CCOCC4)c(=O)n(-c4ccc(F)cc4)c3=O)cc2F)c1C#CCC1CCNCC1 [Example 59, N-(4-(2-amino-3-(3-(piperidin-4-yl)prop-1-ynyl)pyridin-4-yloxy)-3-fluorophenyl)-3-(4-fluorophenyl)-2,4-dioxo-1-(tetrahydro-2H-pyran-4-yl)-1,2,3,4-tetrahydropyrimidine-5-carboxamide] | < 1000 nM | < 1000 nM | < 1000 nM | < 1000 nM
4 | CN1CCC(CC#Cc2c(Oc3ccc(NC(=O)c4cn(C5CCOCC5)c(=O)n(-c5ccc(F)cc5)c4=O)cc3F)ccnc2N)CC1 [Example 60, N-(4-(2-amino-3-(3-(1-methylpiperidin-4-yl)prop-1-ynyl)pyridin-4-yloxy)-3-fluorophenyl)-3-(4-fluorophenyl)-2,4-dioxo-1-(tetrahydro-2H-pyran-4-yl)-1,2,3,4-tetrahydropyrimidine-5-carboxamide] | < 100 nM | < 100 nM | < 100 nM | < 100 nM
5 | C=CCn1cc(C(=O)Nc2ccc(Oc3ccnc(N)c3C#CCN3CCOCC3)c(F)c2)c(=O)n(CC=C)c1=O [Example 67, 1,3-diallyl-N-(4-(2-amino-3-(3-morpholinoprop-1-ynyl)pyridin-4-yloxy)-3-fluorophenyl)-2,4-dioxo-1,2,3,4-tetrahydropyrimidine-5-carboxamide] | < 100 nM | < 1000 nM | < 1000 nM | < 100 nM
6 | C=CCn1cc(C(=O)Nc2ccc(Oc3ccnc(N)c3C#CC(C)(C)N3CCN(C)CC3)c(F)c2)c(=O)n(CC=C)c1=O [Example 68, 1,3-diallyl-N-(4-(2-amino-3-(3-methyl-3-(4-methylpiperazin-1-yl)but-1-ynyl)pyridin-4-yloxy)-3-fluorophenyl)-2,4-dioxo-1,2,3,4-tetrahydropyrimidine-5-carboxamide] | < 1000 nM | < 10000 nM | < 1000 nM | < 1000 nM
7 | C=CCn1cc(C(=O)Nc2ccc(Oc3ccnc(N)c3C#CCC3CCN(C)CC3)c(F)c2)c(=O)n(CC=C)c1=O [Example 69, 1,3-diallyl-N-(4-(2-amino-3-(3-(1-methylpiperdin-4-yl)prop-1-ynyl)pyridin-4-yloxy)-3-fluorophenyl)-2,4-dioxo-1,2,3,4-tetrahydropyrimidine-5-carboxamide] | < 1000 nM | < 1000 nM | < 1000 nM | < 1000 nM
8 | C=CCn1cc(C(=O)Nc2ccc(Oc3ccnc(N)c3C#CC(C)(C)N3CCOCC3)c(F)c2)c(=O)n(CC=C)c1=O [Example 70, 1,3-diallyl-N-(4-(2-amino-3-(3-methyl-3-morpholinobut-1-ynyl)pyridin-4-yloxy)-3-fluorophenyl)-2,4-dioxo-1,2,3,4-tetrahydropyrimidine-5-carboxamide] | < 1000 nM | < 10000 nM | < 1000 nM | < 1000 nM
9 | C=CCn1cc(C(=O)Nc2ccc(Oc3ccnc(N)c3C#CCC3CCNCC3)c(F)c2)c(=O)n(CC=C)c1=O [Example 71, 1,3-dialyl-N-(4-(2-amino-3-(3-(piperidin-4-yl)prop-1-ynyl)pyridin-4-yloxy)-3-fluorophenyl)-2,4-dioxo-1,2,3,4-tetrahydropyrimidine-5-carboxamide] | < 1000 nM | < 1000 nM | < 1000 nM | < 1000 nM
